The results in this text go back to patent US20230009323A1, “COMPOUNDS AND METHODS FOR THE TREATMENT OF CRYPTOSPORIDIOSIS” (The Broad Institute, Inc., priority 2019, published 2023).

Series [1] deals with C. parvum (Iowa isolate). Briefly: EdU incorporation (DNA synthesis) assay of intracellular development in HCT-8 cells. The format is cell-based, Cryptosporidium parvum. As to conditions: 2×EC90; FIG. 6A legend says EC90. The protocol:
DNA synthesis was assayed during intracellular development of C. parvum (Iowa isolate) within HCT-8 cells by measuring incorporation of the thymidine analogue 5-ethynyl-2′-deoxyuridine (EdU) using epifluorescence microscopy as described in Jumani, R. S. et al. Nat Commun 10, 1862, doi:10.1038/s41467-019-09880-w (2019), hereby incorporated by reference in its entirety. HCT-8 cells were grown to >90% confluence in 96-well plates coated with 50 μg mL^−1 fibronectin (BD Pharmingen, catalog #354008), and then infected using the method described above with ˜5.5×10^4 C. parvum Iowa isolate oocysts per well. Compound 11 was added at 2×EC90 3 hours after infection, followed by incubation for 6 hours and then addition of […] EdU. After incubation for two more hours, the monolayers were washed and fixed with 4% formaldehyde in saline. Cells were then permeabilized, and stained with FITC-Vicia villosa lectin, Hoechst 33258, and for incorporation of EdU using the Click-iT assay kit (Thermo Fisher Scientific). Images were acquired by focusing on the parasite focal plane on top of the host cell monolayer using a 40× objective (0.7 NA), and parasitophorous vacuoles and EdU positive vacuoles were quantified using NIH ImageJ software.

For series [2], the system named is C. parvum (Field Isolate) WSU. The series is described as follows: C. parvum field isolate (WSU) growth in HCT-8 cells. As to conditions: Cryptosporidium parvum. Format: cell-based. The procedure:
(§1) Studies using farm C. parvum isolates and the C. hominis TU502 isolate were performed by Calibr at Scripps Research (La Jolla, Calif.) in 1,536-well plates using a slightly modified immunofluorescence assay as described in Love, M. S. et al. PLoS neglected tropical diseases 11, e0005373, doi:10.1371/journal.pntd.0005373 (2017), hereby incorporated by reference in its entirety. HCT-8 cell culture medium was replaced with RPMI 1640 medium supplemented with 2% heat-inactivated horse serum, 100 U·mL^−1 penicillin, and […] 24 h prior to infection with the indicated isolate. The C. parvum Iowa isolate was included as a reference in all experiments. Imaging was performed using a Cellnsight CX5 High Content screening platform (Thermo Scientific) with a 10× objective and acquisition of one microscopic field per well. Images were processed using HCS Studio Scan software, and the selected-object count (HCT-8 cells) and spot count (parasitophorous vacuoles) were analyzed in Genedata Screener (version 13.0; Standard). Dose-response curves and EC50 values were calculated using the Smart Fit function of Genedata Analyzer.

Series [3] concerns C. parvum. Briefly: Asexual growth vs DMC1 sexual differentiation assay. The format is cell-based, Cryptosporidium parvum. The protocol:
The effect on expression of the meiotic recombination protein DMC1 was previously identified as a sexual stage-specific marker for C. parvum. The potency of Compound 11 for inhibiting asexual development during the first 48 h of infection was compared to its potency at inhibiting DMC1 expression when compound was added after 48 h of culture (the approximate timing of sexual differentiation). In addition to staining for parasites with FITC-Vicia villosa lectin and DNA with Hoechst as above, samples were stained for the presence of DMC1 with an anti-C. parvum DMC1 mouse monoclonal antibody (clone 1H10G7 (IgG2b, kappa) used as undiluted culture medium with a secondary Alexa Fluor 568 goat anti-mouse IgG antibody (Invitrogen) at 1:500 dilution. Cultures were performed in 384-well plates with the addition of amphotericin B (Sigma, catalog) to the culture medium at 0.1 to 0.5 μg·mL^−1 for these assays. Images were acquired as above, and analyzed using NIH ImageJ software.

The test system of series [4] is C. parvum (Iowa) Sterling. Briefly: C. parvum (Iowa) Sterling growth in HCT-8 cells. Format: cell-based. The settings on record: Cryptosporidium parvum. The protocol: as §1
Series [5] can be described thus: HepG2 cytotoxicity. The settings on record: human, HepG2 cells. Format: cell-based.
Series [6] deals with transgenic C. parvum (L482+V482 mixed or wt L482). The series is described as follows: IFN-γ knockout mice infected with transgenic C. parvum, fecal luminescence. Format: in vivo, C57BL/6 IFN-γ knockout mice. The settings on record: 10 mg/kg for five days (days 4-8 post-infection); day 7. The text has this: All mouse studies described in this section were approved by the Institutional Animal Care and Use Committee of the University of Georgia and University of Pennsylvania. Cryptosporidium parvum IOWA-II oocysts were purchased from Bunch Grass Farms, Deary, Id., USA. Oocysts were excysted and electroporated with Cas9/guide plasmid and repair DNA template using Lonza Nucleofector 4D device and previously optimized protocols described in Vinayak, S. et al. Nature 523, 477-480, doi:10.1038/nature14651 (2015) and Pawlowic, et al. Curr Protoc Microbiol 46, 20B 22 21-20B 22 32, doi:10.1002/cpmc.33 (2017), each hereby incorporated by reference in their entirety. C57BL/6 IFN-γ knockout mice (Jackson Laboratory) aged 4-6 weeks (n=5) were infected with transfected sporozoites suspended in PBS using surgery described previously or an oral gavage procedure. The oral gavage procedure involved buffering of the acidic stomach with 8% sodium bicarbonate before delivery of sporozoites.
Fecal samples were collected from cages and luminescence measurements were performed as described in Manjunatha, U. H. et al. Nature 546, 376-380, doi:10.1038/nature22337 (2017) and Vinayak, S. et al. Nature 523, 477-480, doi:10.1038/nature14651 (2015), each hereby incorporated by reference in their entirety. […] During passaging, mice were monitored for weight loss, fur ruffling, hunched posture, and inactivity. […]

On to `COc1ccc(NC(=O)N2CCCCN3[C@H](CN(C)C)[C@H](c4ccc(C#Cc5ccccc5)cc4)[C@@H]3C2)cc1` [Compound 11, (8R,9S,10S)-10-((dimethylamino)methyl)-N-(4-methoxyphenyl)-9-(4-(phenylethynyl)phenyl)-1,6-diazabicyclo[6.2.0]decane-6-carboxamide], for which the “intracellular parasite development (EdU incorporation)” value in series [1] is listed as “strongly inhibited intracellular parasite development”. Besides, the EC50 in series [2] amounted to 0.023 µM; in series [4], 0.008 µM. The “potency on asexual growth (0-48 h) vs DMC1 expression (48-72 h)” value in series [3] is recorded as “approximately equipotent”. Besides, the CC50 in series [5] was found to be 5 µM. For the same molecule, the “fecal luciferase activity (parasite shedding)” value in series [6] is “decrease in luciferase activity”.
